# Data reported in patent publication US20220281918A1, “PBP BINDING BICYCLIC PEPTIDE LIGANDS” (BicycleTx Limited, priority 2019, published 2022).
# Numbered stars: 1 amine (or outer) side, 2 acyl side, 3 side chain; on linkers, the order of the positions; unused ones are H or OH. Bridge positions count the residues as written; N and C are the ends. Square brackets hold non-standard residues; d marks the D form. Ends that are not written are not given here. TATA = O=C(CC[*:1])N1CN(C(=O)CC[*:2])CN(C(=O)CC[*:3])C1; fluorescein = label appended via Sar6-Lys linker; Sar = CNCC(=O)O
# T1: PBP3 of E. coli (E. coli, UniProt P0AD68 57-577, limits assumed)
# T1 construct: also called E. coli PBP3; FtsI
# T1 sequence (looked up): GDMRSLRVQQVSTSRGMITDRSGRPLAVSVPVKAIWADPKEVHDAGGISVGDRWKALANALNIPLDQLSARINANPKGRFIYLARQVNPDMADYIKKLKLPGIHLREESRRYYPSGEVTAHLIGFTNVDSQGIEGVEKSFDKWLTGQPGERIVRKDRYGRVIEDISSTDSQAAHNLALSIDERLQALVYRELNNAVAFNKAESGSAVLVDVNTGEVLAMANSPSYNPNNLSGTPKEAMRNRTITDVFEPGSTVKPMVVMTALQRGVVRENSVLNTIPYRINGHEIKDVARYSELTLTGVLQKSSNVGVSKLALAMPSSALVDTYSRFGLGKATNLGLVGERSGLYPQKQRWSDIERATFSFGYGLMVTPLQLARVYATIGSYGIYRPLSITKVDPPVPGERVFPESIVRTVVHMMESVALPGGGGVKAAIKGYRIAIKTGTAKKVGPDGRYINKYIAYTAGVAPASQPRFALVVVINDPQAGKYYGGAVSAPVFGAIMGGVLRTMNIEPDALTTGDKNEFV
# T2: S. pneumoniae PBP1a (S. pneumoniae, UniProt Q04707 37-719, limits assumed)
# T2 sequence (looked up): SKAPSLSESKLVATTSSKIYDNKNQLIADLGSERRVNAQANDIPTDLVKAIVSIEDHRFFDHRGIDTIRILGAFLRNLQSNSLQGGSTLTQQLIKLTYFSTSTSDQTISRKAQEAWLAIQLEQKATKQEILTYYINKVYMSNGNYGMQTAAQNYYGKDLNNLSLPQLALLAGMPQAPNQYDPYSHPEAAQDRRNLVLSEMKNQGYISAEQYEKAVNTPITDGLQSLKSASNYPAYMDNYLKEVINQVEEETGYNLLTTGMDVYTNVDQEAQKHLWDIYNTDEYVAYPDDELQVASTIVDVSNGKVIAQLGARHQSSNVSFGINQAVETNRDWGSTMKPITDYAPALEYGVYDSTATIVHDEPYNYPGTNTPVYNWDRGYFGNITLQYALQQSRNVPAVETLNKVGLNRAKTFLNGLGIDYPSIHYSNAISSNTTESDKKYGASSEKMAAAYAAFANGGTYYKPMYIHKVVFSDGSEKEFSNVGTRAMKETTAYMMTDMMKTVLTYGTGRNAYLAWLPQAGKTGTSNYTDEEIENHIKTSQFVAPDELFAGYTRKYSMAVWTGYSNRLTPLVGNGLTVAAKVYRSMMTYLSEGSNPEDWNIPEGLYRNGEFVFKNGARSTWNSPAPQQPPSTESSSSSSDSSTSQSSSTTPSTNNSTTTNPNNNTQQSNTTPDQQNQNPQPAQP
# B1: BCY12130 with fluorescein appended to the C-terminus with a Sar6-Lysine linker (peptide)
# peptide: ACSFPKCPWVEGCA
# modifications: Ci, Cii and Ciii cyclised with TATA scaffold; fluorescein appended to the C-terminus with a Sar6-Lysine linker
# notes: Bicyclic peptide
# B2: BCY9383 with fluorescein appended to the C-terminus with a Sar6-Lysine linker (peptide)
# peptide: ACHDWDYRHLCYWRCA[Sar][Sar][Sar][Sar][Sar][Sar]K-fluorescein
# modifications: linker 2-11-15 via TATA
# notes: Bicyclic peptide
# B3: BCY9378 with fluorescein appended to the C-terminus with a Sar6-Lysine linker (peptide)
# peptide: ACPYTSCPPHTMCA[Sar][Sar][Sar][Sar][Sar][Sar]K-fluorescein
# modifications: linker 2-7-13 via TATA
# notes: Bicyclic peptide
# How the values were obtained:
# PBP3 of E. coli [1] = biological target: T3, PBP3 of E. coli (Escherichia coli, UniProt P0AD68); assay: Fluorescence polarisation direct binding assay, PBP 3; conditions: PBP Tested 3 (E. coli); fluorescent ligand
# Experimental: Fluorescence polarisation was carried out using fluorescein-labelled peptides with unmodified PBP protein and measured using a PHERAstar FS by BMG Labtech fitted with a FP 485 520 520 optic module.
# Fluorescent peptides at 10 mM in DMSO were diluted to 2.5 nM in binding buffer (10 mM HEPES, pH8, 300 mM NaCl, 2% glycerol). A two-fold dilution series of PBP protein was then prepared across 12 wells in binding buffer, with the highest concentration being 21 μM, and the lowest concentration being 17 nM.
# 10 μl diluted fluorescent peptide (2.5 nM) was added into 12 wells of a 384-Well NBS™ Low Volume Microplate (Fisher Scientific). 10 μl PBP dilution series was then added to the wells containing the fluorescent peptide, and 5 μl binding buffer was added to bring the total volume to 25 μl and the final concentration of peptide tracer to 1 nM. A control well lacking PBP protein was prepared with a final peptide concentration of 1 nM to a final volume of 25 μl in binding buffer. Fluorescence polarisation was measured every 5 minutes for a period of one hour at room temperature. The gain and focal height were optimised using the control well lacking protein. […]
# Data were analysed in GraphPad software to derive values for the dissociation constant. […]
# Of note, the direct binding values presented herein utilise a peptide ligand bound to a fluorescence tracer molecule.
# [2] = test system: E. Coli GKCW102 (WT-pore); assay: MIC assay, E. coli GKCW102; type: cell-based; conditions: Escherichia coli
# Experimental: (§1) Minimum inhibitory concentration (MIC) assays were carried out using E. coli strains from the Zgurskaya lab engineered to harbour an inducible pore to make the outer membrane permeable (Krishnamoorthy et al. (2016) doi: https://doi.org/10.1128/AAC.01882-16). Strains used: GKCW101; GKCW102; GKCW103; and GKCW104.
# (§2) Overnight cultures of bacteria were first prepared by transferring a single bacterial colony into 5 mL cation-adjusted Mueller-Hinton broth (CA-MHB) supplemented with kanamycin at 50 μg/mL. The following day, overnight cultures were diluted 1/100 in 25 mL CA-MHB with 50 μg/mL kanamycin and cultured until the optical density reached 0.3 as measured on a spectrometer at 600 nm.
# (§3) Filter-sterilised arabinose was then added to a concentration of 0.1% w/v and subsequently cultured until the optical density at 600 nm equalled to 1.
# (§4) The cultured medium was then diluted to 1×10^6 CFU mL^−1 in CA-MHB supplemented with 0.1% w/v arabinose and 50 μg/mL kanamycin. […]
# (§5) A maximum 8 μl of peptide ligand was then added into the wells of column 1 and diluted two-fold across the plate. […] The optical density at 600 nm was then measured for each of the wells using a PheraStar FSx plate reader. MIC values were determined as the cutoff concentration between visible growth and no growth of the bacteria.
# E. coli (ATCC 25922) = assay: MIC assay (10 μl), E. coli ATCC 25922; type: cell-based; conditions: Escherichia coli, ATCC25922
# Experimental: (§6) Test compounds were dissolved at high concentration in the required solvent. Where DMSO was used to dissolve test compounds, a DMSO control with equivalent concentrations of DMSO was included for each test organism. For each test organism, a control antibiotic (for which susceptibility of the test organism was known) was tested in parallel. This allowed comparison of results between runs and validated the testing procedure and organism.
# (§7) Using aseptic technique, serial 2-fold dilutions (across a 10 point range) of the test compounds were made in 5 μl of cation-adjusted Muller Hinton broth (CA-MHB), on the inverted lid of a 96-well plate. Inoculum for each test organism was made in phosphate-buffered saline (PBS) to match the turbidity of a 0.5 McFarland standard, and then diluted 100-fold. Each well (except negative control well) was inoculated with 5 μl of inoculum. For each test antibiotic, a negative control (no bacteria) was included, consisting of CA-MHB only; along with a positive control (no antibiotic) with CA-MHB and bacteria only. The base of the 96 well plate was used as a lid, and the plate was incubated inside a humidor to reduce evaporation. […] MIC was evaluated based on turbidity, using white light shone through the base of the plate to illuminate droplets.
# [3] = test system: S. typhimurium (ATCC 19585); assay: MIC assay (10 μl), S. typhimurium; type: cell-based; conditions: Salmonella enterica
# Experimental: as §6, §7
# E. Coli GKCW101 (WT) = assay: MIC assay, E. coli GKCW101; type: cell-based; conditions: Escherichia coli
# Experimental: as §1, §2, §3, §4, §5
# E. cloacae (NCTC 13405) = assay: MIC assay (10 μl), E. cloacae; type: cell-based; conditions: Enterobacter cloacae, NCTC13405
# Experimental: as §6, §7
# E. Coli GKCW103 (ΔToIC) = assay: MIC assay, E. coli GKCW103; type: cell-based; conditions: Escherichia coli
# Experimental: as §1, §2, §3, §4, §5
# PBP3 of E. coli [4] = biological target: T3, PBP3 of E. coli; assay: Fluorescence polarisation competition binding assay Method 1 (BODIPY labelled penicillin tracer); conditions: competition with Bocillin (BODIPY-penicillin)
# Experimental: Fluorescence polarisation competition was carried out using a BODIPY labelled Penicillin tracer and unlabelled peptides, for competition to an unmodified PBP protein. Polarisation was measured using a PHERAstar FS by BMG Labtech fitted with a FP 485 520 520 optic module.
# Fluorescent BODIPY labelled penicillin at 5 mM in DMSO were diluted to 6.25 nM in binding buffer (10 mM HEPES, pH8, 300 mM NaCl, 2% glycerol). Unmodified PBP were diluted to 2 μM in binding buffer. A two-fold dilution series of unmodified peptide was prepared across 12 wells in binding buffer, with the highest final well concentration being 60 μM, and the lowest concentration being 50 nM. 5 μl of the unmodified peptide dilution series or Carbenicillin were added to 12 wells of a 384-Well NBS™ Low Volume Microplate (Fisher Scientific). 10 μl diluted fluorescent BODIPY labelled penicillin (6.25 nM) were then added to the 12 wells containing the unmodified peptide dilutions. […]
# Fluorescence polarisation was measured every 5 minutes for a period of one hour at room temperature. […]
# Data were analysed in GraphPad software to derive values for the inhibition constant. […]
# PBP3 of E. coli [5] = biological target: T1, PBP3 of E. coli; assay: fluorescence polarisation direct binding; fluorescein-labelled peptide, PBP titrated
# PBP3 of P. aeruginosa = biological target: T4, PBP3 of P. aeruginosa (P. aeruginosa, UniProt G3XD46 50-579, limits assumed); assay: as above
# T4 construct: also called P. aeruginosa PBP3
# S. pneumoniae PBP1a = biological target: T2, S. pneumoniae PBP1a; assay: as above
# T3 sequence (P0AD68 1-577): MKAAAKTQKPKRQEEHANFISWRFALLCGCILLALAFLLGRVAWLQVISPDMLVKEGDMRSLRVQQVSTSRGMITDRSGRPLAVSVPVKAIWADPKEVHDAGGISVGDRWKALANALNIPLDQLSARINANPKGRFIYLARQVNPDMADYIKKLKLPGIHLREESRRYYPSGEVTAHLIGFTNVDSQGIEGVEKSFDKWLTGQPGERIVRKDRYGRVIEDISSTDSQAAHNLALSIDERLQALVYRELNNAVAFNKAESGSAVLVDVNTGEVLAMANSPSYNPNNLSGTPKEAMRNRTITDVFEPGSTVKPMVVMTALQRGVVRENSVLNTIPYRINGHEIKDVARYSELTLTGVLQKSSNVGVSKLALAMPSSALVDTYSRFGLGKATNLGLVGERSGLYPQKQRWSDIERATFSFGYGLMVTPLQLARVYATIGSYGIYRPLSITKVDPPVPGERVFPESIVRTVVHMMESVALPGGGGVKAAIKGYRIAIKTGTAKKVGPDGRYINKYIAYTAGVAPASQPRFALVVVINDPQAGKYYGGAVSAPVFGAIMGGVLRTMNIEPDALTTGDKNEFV
# T4 sequence (G3XD46 50-579 limits assumed): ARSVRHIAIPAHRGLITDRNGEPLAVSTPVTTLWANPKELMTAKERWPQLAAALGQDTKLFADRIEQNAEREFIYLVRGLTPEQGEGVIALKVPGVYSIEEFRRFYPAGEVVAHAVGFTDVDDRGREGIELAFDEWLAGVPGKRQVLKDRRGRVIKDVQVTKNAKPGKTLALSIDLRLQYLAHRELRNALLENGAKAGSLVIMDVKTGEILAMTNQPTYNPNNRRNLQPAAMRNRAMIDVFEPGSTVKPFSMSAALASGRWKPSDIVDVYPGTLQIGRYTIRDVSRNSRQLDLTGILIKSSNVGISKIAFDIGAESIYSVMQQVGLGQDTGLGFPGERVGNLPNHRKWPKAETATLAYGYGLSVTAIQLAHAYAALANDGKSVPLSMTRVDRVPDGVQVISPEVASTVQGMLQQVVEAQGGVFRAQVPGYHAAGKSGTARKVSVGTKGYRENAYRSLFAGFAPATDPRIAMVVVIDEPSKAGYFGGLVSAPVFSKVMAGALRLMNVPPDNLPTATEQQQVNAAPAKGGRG
molecule,measurement,setting,value
Cc1cc(C)n2c1C=C1C=CC(CCC(=O)Nc3ccc(OCC(=O)N[C@@H]4C(=O)N5[C@@H]4SC(C)(C)[C@@H]5C(=O)O)cc3)=[N+]1[B-]2(F)F [Bocillin],Kd,PBP3 of E. coli [1],440 nM
"CC1(C)S[C@@H]2[C@H](NC(=O)C(C(=O)O)c3ccccc3)C(=O)N2[C@H]1C(=O)O (stereo partly drawn) [Carbenicillin, reference compound]",MIC,[2],0.8 µg/mL
same,MIC,E. coli (ATCC 25922),16 µg/mL
same,MIC,[3],16 µg/mL
same,MIC,E. Coli GKCW101 (WT),14 µg/mL
same,MIC,E. cloacae (NCTC 13405),256 µg/mL
same,MIC,E. Coli GKCW103 (ΔToIC),2.3 µg/mL
same,Ki,PBP3 of E. coli [4],520 nM
B1,Kd,PBP3 of E. coli [5],2000 nM
same,binding result,PBP3 of P. aeruginosa,no binding
B2,Kd,S. pneumoniae PBP1a,400 nM
B3,Kd,S. pneumoniae PBP1a,80 nM
